According to US20200038478A1, “POLYPEPTIDE AND COMPOSITION THEREOF FOR TREATING DISEASES OF METABOLIC SYSTEM” (WUHAN GRECTECH CO., LTD., priority 2017, published 2020):
Bridge positions count the residues as written; N and C are the ends. Ends that are not written are not given here.

How the values were obtained:
[1] = tested on: trypsin; experiment: Stability against trypsin in simulated intestinal fluid, HPLC (Example 16); format: in vitro ADME; settings: pH 6.8, 1 g trypsin per 100 mL, 37° C., 2 hours
Method: (§1) Polypeptides were subject to enzymatic hydrolysis in simulated gastric and simulated intestinal fluids, respectively, to verify whether the polypeptides were resistance to the enzymatic hydrolysis of digestive enzymes. Control experiments were performed with albumin.
Preparation of simulated intestinal fluid: 6.8 g of potassium dihydrogen phosphate was dissolved in 500 mL water, 0.4% (w/w) NaOH was added to adjust the pH to 6.8, and water was added to make up 1 L. 1 g trypsin per 100 mL solution was added, and after homogeneously mixing, the solution was filtered through a 0.22 μm sterile filter for use.
(§2) 10 μL of the polypeptide solution (10 mg/mL) was added to the simulated gastric fluid (1 mL) and simulated intestinal fluid (1 mL), respectively, and after homogeneously mixing, the mixtures were incubated in a water bath at 37° C. for 2 hours.
(§3) 1 mg of dried albumin powder was added to the simulated gastric fluid (1 mL) and simulated intestinal fluid (1 mL), respectively, and after homogeneously mixing, the mixtures were incubateed in a water bath at 37° C. for 2 hours.
(§4) The above enzymatic mixtures were detected by using HPLC.
(§5) Chromatographic conditions: mobile phase, water (containing 0.1% TFA)+acetonitrile (containing 0.1% TFA), gradient elution from 15% to 50% acetonitrile for 25 min, flow rate of 1 mL/min, detection wavelength of 214 nm, injection volume of 20 ul.

[2] = target: T1, pepsin (Sus scrofa, UniProt P00791); experiment: Stability against pepsin in simulated gastric fluid, HPLC (Example 16); format: in vitro ADME; settings: pH 1.5, 1 g pepsin per 100 mL, 37° C., 2 hours
T1 construct: purchased Sigma-Aldrich Company Ltd
Method: as §1
Preparation of simulated gastric fluid: water was added to diluted hydrochloric acid with a concentration of 1 mol/L, to adjust the pH to 1.5. 1 g pepsin per 100 mL solution was added, and after homogeneously mixing, the solution was filtered through a 0.22 μm sterile filter for use.
as §2, §3, §4, §5

[3] = tested on: normal mice; experiment: Hypoglycemic effect on normal mice after administration by gavage, with or without glucose (Example 11); format: in vivo, Kunming white mice; settings: for Blood glucose level prior to administration: baseline
[4] = tested on: normal mice; experiment: Hypoglycemic effect of the polypeptide on normal mice after tail vein injection (Example 3); format: in vivo, Kunming white mice; settings: for Blood glucose level at 15 min after administration / Blood glucose level at 30 min after administration / Blood glucose level prior to administration: single tail vein injection; for Blood glucose level prior to administration: baseline
[5] = tested on: normal mice; experiment: Hypoglycemic effect on normal mice after subcutaneous injection (Example 6); format: in vivo, Kunming white mice; settings: for Blood glucose level at 15 min after administration / Blood glucose level at 30 min after administration / Blood glucose level prior to administration: 1 mg/mL at 0.05 ml/10 g, single subcutaneous injection on the back; for Blood glucose level prior to administration: baseline
[6] = tested on: normal mice; experiment: Polypeptide vs insulin on normal mice after tail vein injection (Example 10); format: in vivo, Kunming white mice; settings: single tail vein injection, polypeptide 2 mg/mL at 0.05 ml/10 g (10 mg/kg), insulin 0.5 U/mL (2.5 U/kg)
[7] = tested on: mouse models of type 2 diabetes; experiment: Polypeptide mixture vs insulin, mouse models of type 2 diabetes, tail vein injection (Example 13); settings: KK mice, single tail vein injection, polypeptide 2 mg/mL, insulin 0.5 U/mL, each 0.05 ml/10 g
[8] = tested on: mouse models of type 2 diabetes; experiment: Polypeptide mixture vs insulin, mouse models of type 2 diabetes, subcutaneous injection (Example 14); settings: KK mice, single subcutaneous injection on the back, polypeptide 2 mg/mL, insulin 0.5 U/mL, each 0.05 ml/10 g
[9] = tested on: mouse models of type 2 diabetes; experiment: Polypeptide mixture vs insulin, mouse models of type 2 diabetes, intramuscular injection (Example 15); settings: KK mice, single intramuscular injection in the lateral thigh, polypeptide 2 mg/mL, insulin 0.5 U/mL, each 0.05 ml/10 g
[10] = tested on: normal mice; experiment: Natural extract vs solid-phase synthetic polypeptide, normal mice, subcutaneous injection (Example 7); format: in vivo, Kunming white mice; settings: 1 mg/mL at 0.05 ml/10 g, single subcutaneous injection on the back; for Blood glucose level prior to administration: baseline
[11] = tested on: normal mice; experiment: Hypoglycemic effect of synthetic polypeptides on normal mice after subcutaneous injection (Example 9); format: in vivo, Kunming white mice; settings: 1 mg/mL at 0.05 ml/10 g, single subcutaneous injection on the back
[12] = Group B, 1 mg/mL polypeptide in saline at 0.10 ml/10 g
[13] = Group C polypeptide+glucose, 1 mg/mL polypeptide in 10% glucose solution at 0.10 ml/10 g
[14] = Group A high-dose, 1 mg/mL at 0.10 ml/10 g
[15] = Group B medium-dose, 1 mg/mL at 0.05 ml/10 g
[16] = Group C low-dose, 1 mg/mL at 0.025 ml/10 g

T1 sequence (P00791 60-385): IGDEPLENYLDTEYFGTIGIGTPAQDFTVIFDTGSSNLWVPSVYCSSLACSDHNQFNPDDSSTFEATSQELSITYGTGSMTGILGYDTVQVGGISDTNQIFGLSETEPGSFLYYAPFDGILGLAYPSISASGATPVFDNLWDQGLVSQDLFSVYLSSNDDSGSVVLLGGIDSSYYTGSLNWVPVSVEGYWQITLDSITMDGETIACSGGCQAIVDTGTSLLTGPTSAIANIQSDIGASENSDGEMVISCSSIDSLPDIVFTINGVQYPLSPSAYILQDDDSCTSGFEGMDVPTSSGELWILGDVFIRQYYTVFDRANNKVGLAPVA

Albumin: Serum albumin (bovine) standard
enzymatic hydrolysis in simulated intestinal fluid [1]: completely enzymatically hydrolyzed
enzymatic hydrolysis in simulated gastric fluid [2]: completely enzymatically hydrolyzed

ASCNGVCSPFDIPPCGSPLCRCIPVGLVIGKCRNPYG (disulfide 15-32, 3-20, 7-22; listed as Pisum sativum) [SEQ ID No. 10]
Blood glucose level at 15 min after administration [3, 12]: 6.9 ± 0.3 mmol/L
Blood glucose level at 30 min after administration [3, 12]: 6.4 ± 0.2 mmol/L
Blood glucose level at 45 min after administration [3, 12]: 6.1 ± 0.3 mmol/L
Blood glucose level at 60 min after administration [3, 12]: 6.1 ± 0.2 mmol/L
Blood glucose level prior to administration [3, 12]: 6.7 ± 0.6 mmol/L
Blood glucose level at 15 min after administration [3, 13]: 7.1 ± 0.3 mmol/L
Blood glucose level at 30 min after administration [3, 13]: 6.9 ± 0.2 mmol/L
Blood glucose level at 45 min after administration [3, 13]: 6.6 ± 0.3 mmol/L
Blood glucose level at 60 min after administration [3, 13]: 6.2 ± 0.2 mmol/L
Blood glucose level prior to administration [3, 13]: 6.8 ± 0.4 mmol/L

ASCNGVCSPFEMPPCGTSACRCIPVGLFIGYCRNPSG (disulfide 15-32, 3-20, 7-22; listed as Pisum sativum) [SEQ ID No. 7]
Blood glucose level at 15 min after administration [4, 14]: 3.3 ± 0.3 mmol/L
Blood glucose level at 30 min after administration [4, 14]: 2.1 ± 0.3 mmol/L
Blood glucose level prior to administration [4, 14]: 7.1 ± 0.5 mmol/L
Blood glucose level at 15 min after administration [4, 15]: 4.3 ± 0.4 mmol/L
Blood glucose level at 30 min after administration [4, 15]: 3.3 ± 0.3 mmol/L
Blood glucose level prior to administration [4, 15]: 7.9 ± 0.6 mmol/L
Blood glucose level at 15 min after administration [4, 16]: 5.7 ± 0.3 mmol/L
Blood glucose level at 30 min after administration [4, 16]: 4.3 ± 0.3 mmol/L
Blood glucose level prior to administration [4, 16]: 6.9 ± 0.5 mmol/L
hypoglycemic activity (conclusion) ([4]; normal mice, intravenous injection): explicit hypoglycemic activity

ASCNGVCSPFEMPPCGSSACRCIPVGLVVGYCRHPSG (listed as Pisum sativum) [SEQ ID No. 72, extracted polypeptide with H at position 34, outside general formula (I); raised blood glucose]
Blood glucose level at 15 min after administration [5]: 8.91 ± 0.7 mmol/L
Blood glucose level at 30 min after administration [5]: 10.4 ± 0.8 mmol/L
Blood glucose level prior to administration [5]: 7.3 ± 0.6 mmol/L
hypoglycemic activity (conclusion) ([5]; normal mice, subcutaneous injection): no hypoglycemic activity

Insulin
Blood glucose level at 15 min after administration [6]: 5.2 ± 0.4 mmol/L
Blood glucose level at 30 min after administration [6]: 3.6 ± 0.3 mmol/L
Blood glucose level at 45 min after administration [6]: 2.7 ± 0.4 mmol/L
Blood glucose level at 60 min after administration [6]: 2.2 ± 0.2 mmol/L
Blood glucose level prior to administration ([6]; baseline): 7.7 ± 0.6 mmol/L
Blood glucose level at 15 min after administration [7]: 8.5 ± 0.7 mmol/L
Blood glucose level at 30 min after administration [7]: 7.5 ± 0.4 mmol/L
Blood glucose level at 45 min after administration [7]: 6.1 ± 0.4 mmol/L
Blood glucose level at 60 min after administration [7]: 4.8 ± 0.3 mmol/L
Blood glucose level prior to administration ([7]; baseline): 14.3 ± 0.9 mmol/L
Blood glucose level at 15 min after administration [8]: 8.8 ± 0.8 mmol/L
Blood glucose level at 30 min after administration [8]: 7.1 ± 0.7 mmol/L
Blood glucose level at 45 min after administration [8]: 6.4 ± 0.5 mmol/L
Blood glucose level at 60 min after administration [8]: 5.0 ± 0.4 mmol/L
Blood glucose level prior to administration ([8]; baseline): 11.6 ± 1.1 mmol/L
Blood glucose level at 15 min after administration [9]: 11.1 ± 0.9 mmol/L
Blood glucose level at 30 min after administration [9]: 9.6 ± 0.7 mmol/L
Blood glucose level at 45 min after administration [9]: 7.3 ± 0.8 mmol/L
Blood glucose level at 60 min after administration [9]: 5.2 ± 0.4 mmol/L
Blood glucose level prior to administration ([9]; baseline): 13.4 ± 1.1 mmol/L

ASCNGVCSPFEMPPCGTSACRCIPVGLVVGYCRNPSG [Polypeptide B] (disulfide 15-32, 3-20, 7-22; listed as Pisum sativum)
Blood glucose level at 15 min after administration [10]: 5.5 ± 0.3 mmol/L
Blood glucose level at 30 min after administration [10]: 4.6 ± 0.2 mmol/L
Blood glucose level at 45 min after administration [10]: 3.3 ± 0.2 mmol/L
Blood glucose level at 60 min after administration [10]: 2.4 ± 0.1 mmol/L
Blood glucose level prior to administration [10]: 7.2 ± 0.6 mmol/L

ASCNGVCSPFEMPPCGSSACRCIPVGLVVGYCRNPSG (disulfide 15-32, 3-20, 7-22) [SEQ ID No. 26]
Blood glucose level at 15 min after administration [11]: 5.3 ± 0.4 mmol/L
Blood glucose level at 30 min after administration [11]: 4.6 ± 0.3 mmol/L
Blood glucose level at 45 min after administration [11]: 3.2 ± 0.2 mmol/L
Blood glucose level at 60 min after administration [11]: 2.1 ± 0.2 mmol/L
Blood glucose level prior to administration ([11]; baseline): 6.8 ± 0.3 mmol/L
Blood glucose level at 15 min after administration [5]: 5.3 ± 0.4 mmol/L
Blood glucose level at 30 min after administration [5]: 4.4 ± 0.3 mmol/L
Blood glucose level prior to administration [5]: 7.1 ± 0.5 mmol/L

ASCNGVCSPFEMPPCGTSACRCIPVGLVVGYCRNPSG [Polypeptide A] (disulfide 15-32, 3-20, 7-22; listed as Pisum sativum)
Blood glucose level at 15 min after administration [10]: 5.2 ± 0.4 mmol/L
Blood glucose level at 30 min after administration [10]: 4.4 ± 0.5 mmol/L
Blood glucose level at 45 min after administration [10]: 3.6 ± 0.3 mmol/L
Blood glucose level at 60 min after administration [10]: 2.2 ± 0.2 mmol/L
Blood glucose level prior to administration [10]: 6.8 ± 0.5 mmol/L
